We go through 1 compound from patent EP4817688A2, “DEGRADING PKCß1 TO TREAT CANCER” (Mayo Foundation for Medical Education and Research, priority 2020, dated 2022).

Format in all cases: cell-based
One assay has as its system MDAMB436 cells. The assay is described as follows: crystal violet (CV) proliferation assay, MDAMB436. Particulars: Homo sapiens, MDA-MB-436, MDAMB436 (PKCβ1^low, Rb^negative) 2000 cells. On the procedure:
(§1) Cell proliferation rates were determined using crystal violet assays. One thousand cells per well were plated in 96 well tissue culture plates and treated the following day with a bifunctional compound or control for 7 days in replicates of 8. Cells were fixed with 25% glutaraldehyde for 10 minutes with shaking, washed 5 times with distilled water, stained with a 1% crystal violet solution (solubilized in 25% methanol) for 10 minutes, washed again 5 times and allowed to dry. De-staining was performed using […] sodium citrate in 50% ethanol followed by quantification using a 96 well spectrophotometer set at an absorbance of 550 nm.

For a further assay, the system named is MDAMB231 cells. The experiment in a line: crystal violet (CV) proliferation assay, MDAMB231. Particulars: Homo sapiens, MDA-MB-231, MDAMB231 (PKCβ1^high, Rb^positive) 2000 cells. Here is the method: as §1
In another assay the test system is MDAH-2774 cells. The experiment in a line: crystal violet (CV) proliferation assay, MDAH-2774. To be noted: Homo sapiens; MDAH-2774 (PKCβ1^high) 1000 cells/well; read-out: Approximate IC50. On the procedure: as §1
(§2) Based on the potent anti-proliferative activity of ENDX-PROTACs TC-Pr-006, TC-Pr-007, TC-Pr -008, and TC-Pr -009 in TNBC cells, the efficacy of these compounds for inhibiting the growth of ovarian cancer cells was tested. This analysis utilized KURAMOCHI cells, which represent the high-grade serous subtype (the most malignant form that accounts for 70% of all ovarian cancers and associates with poor clinical outcome) and MDAH-2774 cells, which represent endometrioid ovarian cancer and accounts for 20% of all ovarian cancer. PKCβ1 was confirmed to be expressed in both ovarian cancer cell line models, with MDAH-2774 cells expressing higher amounts of PKCβ1 compared to KURAMOCHI cells (FIG. 5A). […]

For the next assay, the system named is BT549 cells. The assay is described as follows: crystal violet (CV) proliferation assay, BT549. Particulars: Homo sapiens, BT-549, BT549 (PKCβ1^high, Rb^regative) 2000 cells. On the procedure:
as §1

In the next assay the test system is KURAMOCHI cells. The experiment in a line: crystal violet (CV) proliferation assay, KURAMOCHI
To be noted: KURAMOSHI (PKCβ1^low) 1000 cells/well; read-out: Approximate IC50. Here is the method: as §1, §2

Consider `CC/C(=C(\c1ccc(O)cc1)c1ccc(OCCNC)cc1)c1ccccc1` [ENDX, endoxifen, reference compound], for which the IC50 was over 5 µM in the assay on MDAMB436 cells; over 5 µM in the assay with MDAMB231 cells; over 10 µM in the assay with MDAH-2774 cells; over 5 µM in the assay on BT549 cells; over 10 µM in the assay with KURAMOCHI cells.
